According to US6436947B1, “Trans cyclopentanyl purine analogs useful as immunosuppressants” (Aventis Pharmaceuticals Inc., priority 1991, dated 2002):
Counter-ions that a name gives are not always drawn.

Columns and labels:
[1] = test system: TNF-a production by peripheral blood mononuclear cells; assay: Inhibition of Tumor Necrosis Factor alpha in LPS-stimulated PBMC adherent cells (ELISA); format: cell-based; settings: human PBMC adherent cells, 1 μg/ml LPS, 18 hours
Procedure: Peripheral blood mononuclear cells (PBMC) are isolated from venous blood collected from healthy volunteers in sodium citrate (5 ml of 3.6% sodium citrate for 45 ml of blood) by density gradient centrifugation of 5 minutes at 1500 rpm. The PBMC are resuspended in about 10 ml of RPMI-1640 with antibiotics. Approximately 2×10^6 cells of PBMC are added to tissue culture plates, incubated for 45-60 minutes at 37 C with 5% CO2, aspirated, and washed twice by adding about 0.5 ml fresh RPMI-1640 with 10% non-mitogenic FBS (RPMI complete) and shaking for 15 to 30 seconds. 1.0 ml RPMI-1640 is added per well to the remaining adherent cells, which are pretreated with test compound solution about 15 minutes prior to endotoxin stimulation (1 μg/ml lipopolysaccharide from E. coli or solvent concentrations equal to those of test compounds.
Cultures are incubated for 18 hours t 37 C in 5% CO2. Supernatants are tested from TNF-a using a commercial ELISA kit (Cistron, Pine Brook, N.J.). The IC50 is determined using SOFTmax software program.

[2] = test system: Rat macrophage antigen presentation to mBSA-reactive T-cell hybridoma / Interleukin-2 production; assay: Regulation of macrophage antigen presentation to rat T-cell hybridoma (Interleukin-2 production); format: cell-based
Procedure: Using the method of Ku (Cellular Immunology 130, (1990)), and a Lewis (LEW/N) rat T-cell hybridoma reactive with the protein methylated bovine serum albumin (mBSA), the ability of a compound of formula (1) to regulate MΦ antigen presentation in vitro may be measured. Peritoneal macrophages obtained from LEW/N rats are plated into tissue culture and treated with 100 μg of mBSA and drug. A control is prepared similarly. After a period of 18 hours the cells are washed and incubated with the T-cell hybridoma for an additional 12 hours. Supernatants from these cultures are obtained and measured for content of Interleukin-2, a T-cell derived lymphokine which is produced by activated T-cells. […] Rat macrophage antigen presentation and the subsequent production of Interleukin-2 are inhibited when drug is administered over a concentration range from 0.1 to 100 μM as illustrated in the following table.

[3] = test system: endotoxin-induced septic shock in CF1 mice; assay: Mouse endotoxin lethality model (D-galactosamine/LPS); format: in vivo; settings: 100 mg/kg i.p., pretreated t=-1 hr, 18 mg D-glactoseamine and 50 ng LPS, observed 8-72 hour
Procedure: Using the method of Silverstein, (J. Exp. Med. 173, 357 (1991)) a mouse endotoxin lethality model may be used to determine if a compound of formula (1) has the ability to inhibit endotoxin-induced septic shock which is dependent on the production of Tumor Necrosis Factor-α (TNF-α). CF1 mice pretreated at time (t)=−1 hr with drug are challenged with 18 mg of D-glactoseamine and 50 ng of LPS, then observed for death over an 8-72 hour period.

[4] = test system: Major Histocompatibility complex (MHC) class II antigen levels on macrophages; assay: Regulation of MHC class II expression on macrophages from M. tuberculosis-treated rats (flow cytometry, OX-6/OX-42); format: cell-based, rat; settings: 10 μM, 18 hours; positive control 59%
Procedure: Using the method of Edwards (J. of Cell Biochemistry 5E, 155(1991)), the ability of a compound of formula (1) to reduce Major Histocompatibility complex (MHC) class II antigen levels on macrophages (MΦ) obtained from M. tuberculosis-treated rats may be measured. Cells obtained from treated rats are plated into tissue culture for a period of 4 hours to purify adherent cells, then treated with increasing levels of drug for a period of 18 hours. After this incubation period, cells are scraped from the dishes and stained using flow cytometry analysis with various monoclonal antibodies such as OX-6 a monoclonal antibody specific for MHC class II antigens and OX-42 a monoclonal antibody specific for rat macrophages.

SMILES	IC50 [1] [µM]	T-cell activation ([2]; 0.1 to 100 μM)	% Inhibition (antigen presentation / Interleukin-2 production) ([2]; in vitro concentration 0.1 μM) [%]	% Inhibition (antigen presentation / Interleukin-2 production) ([2]; in vitro concentration 1.0 μM) [%]	% Inhibition (antigen presentation / Interleukin-2 production) ([2]; in vitro concentration 10.0 μM) [%]	% Inhibition (antigen presentation / Interleukin-2 production) ([2]; in vitro concentration 100.0 μM) [%]	protection against endotoxin lethality [3]	OX-6/OX-42 double positive macrophages [4] [%]
Nc1ncnc2c1ncn2[C@@H]1CCC[C@H]1O (racemic) [(±)-Trans-1-(9-adenyl)-2-hydroxycyclopentane, reference compound]	22.2	–	–	–	–	–	–	–
Cl.Nc1ncnc2c1ncn2[C@@H]1CC[C@@H](O)C1 (relative stereo) [Example 1, (1R,3R)-trans-1(9-Adenyl)cyclopentan-3-ol Hydrochloride]	9	inhibits T-cell activation	7.6	30.9	48.7	55.3	protects against endotoxin lethality	39
Nc1nc(Cl)nc2c1ncn2[C@@H]1CC[C@@H](O)C1 (relative stereo) [Example 6, (1R,3R)-trans-1-[9-(6-Amino-2-chloropurinyl)]cyclopentan-3-ol Hydrochloride]	4.1	–	–	–	–	–	–	–
